# Assay results reported in US7491819B1 (priority 2004, dated 2009).
# Target: T1, HIV-integrase (Human immunodeficiency virus type 1 group M subtype B, UniProt P12497)
# T1 construct: Recombinant integrase (0.26 ng) was incubated with the beads
# Test: HIV-Integrase Inhibition Activity (SPA bead strand-transfer assay)
# Type: biochemical
# Conditions: Table 1; read-out: Activity (HIV-integrase inhibition, IC50 class)
# Outline: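 Strand-transfer read-out: CPM from P33-labelled target DNA (0.1 fmol) joined to bead-bound biotin substrate DNA (5 pmole), with EDTA stop at 10 mM final. Integrase (0.26 ng) prebound to streptavidin SPA beads 90 min, 37° C, and washed before adding inhibitor.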
row,Compound,IC50 [nM]
1,"CC1(C)OCCn2c1nc(C(=O)NCc1ccc(F)cc1C(=O)NCCO)c(O)c2=O [Example 51, Pyrimido[2,1-c][1,4]oxazine-2-carboxamide, N-[[4-fluoro-2-[[(2-hydroxyethyl)amino]carbonyl]phenyl]methyl]-4,6,7,9-tetrahydro-3-hydroxy-9,9-dimethyl-4-oxo-]",2 to 100
2,"CC1(C)OCCn2c1nc(C(=O)NCc1ccc(F)cc1-c1ccc[nH]c1=O)c(O)c2=O [Example 78, Pyrimido[2,1-c][1,4]oxazine-2-carboxamide, N-[[2-(1,2-dihydro-2-oxo-3-pyridinyl)-4-fluorophenyl]methyl]-4,6,7,9-tetrahydro-3-hydroxy-9,9-dimethyl-4-oxo-]",2 to 100
3,"COC(=O)c1cccc(CNC(=O)c2nc3n(c(=O)c2O)CCOC3(C)C)c1 [Example 264, Benzoic acid, 3-[[[(4,6,7,9-tetrahydro-3-hydroxy-9,9-dimethyl-4-oxopyrimido[2,1-c][1,4]oxazin-2-yl)carbonyl]amino]methyl]-, methyl ester]",2 to 100
4,"COc1cccc(CNC(=O)c2nc3n(c(=O)c2O)CCOC3(C)C)c1OC [Example 229, Pyrimido[2,1-c][1,4]oxazine-2-carboxamide, N-[(2,3-dimethoxyphenyl)methyl]-4,6,7,9-tetrahydro-3-hydroxy-9,9-dimethyl-4-oxo-]",2 to 100
5,"CC1(C)OCCn2c1nc(C(=O)NCc1ccccc1-c1cnc3ccccc3c1)c(O)c2=O [Example 194, Pyrimido[2,1-c][1,4]oxazine-2-carboxamide, 4,6,7,9-tetrahydro-3-hydroxy-9,9-dimethyl-4-oxo-N-[[2-(3-quinolinyl)phenyl]methyl]-]",2 to 100
6,"CC1(C)OCCn2c1nc(C(=O)NCc1ccccc1Br)c(O)c2=O [Example 147, Pyrimido[2,1-c][1,4]oxazine-2-carboxamide, N-[(2-bromophenyl)methyl]-4,6,7,9-tetrahydro-3-hydroxy-9,9-dimethyl-4-oxo-]",2 to 100
7,"CC1(C)OCCn2c1nc(C(=O)NCc1c(F)cccc1Cl)c(O)c2=O [Example 273, Pyrimido[2,1-c][1,4]oxazine-2-carboxamide, N-[(2-chloro-6-fluorophenyl)methyl]-4,6,7,9-tetrahydro-3-hydroxy-9,9-dimethyl-4-oxo-]",2 to 100
8,"CC1(C)OCCn2c1nc(C(=O)NCc1ccc(F)cc1Cl)c(O)c2=O [Example 36, Pyrimido[2,1-c][1,4]oxazine-2-carboxamide, N-[(2-chloro-4-fluorophenyl)methyl]-4,6,7,9-tetrahydro-3-hydroxy-9,9-dimethyl-4-oxo-]",2 to 100
9,"CC1(C)OCCn2c1nc(C(=O)NCc1ccc(Cl)cc1)c(O)c2=O [Example 34, Pyrimido[2,1-c][1,4]oxazine-2-carboxamide, N-[(4-chlorophenyl)methyl]-4,6,7,9-tetrahydro-3-hydroxy-9,9-dimethyl-4-oxo-]",2 to 100
10,"CC1(C)OCCn2c1nc(C(=O)NCc1ccc(F)cc1Nc1nccs1)c(O)c2=O [Example 115, Pyrimido[2,1-c][1,4]oxazine-2-carboxamide, N-[[4-fluoro-2-(2-thiazolylamino)phenyl]methyl]-4,6,7,9-tetrahydro-3-hydroxy-9,9-dimethyl-4-oxo-]",2 to 100
11,"Cc1cc(-c2cc(F)ccc2CNC(=O)c2nc3n(c(=O)c2O)CCOC3(C)C)on1 [Example 210, Pyrimido[2,1-c][1,4]oxazine-2-carboxamide, N-[[4-fluoro-2-(3-methyl-5-isoxazolyl)phenyl]methyl]-4,6,7,9-tetrahydro-3-hydroxy-9,9-dimethyl-4-oxo-]",2 to 100
12,"CCCn1cc(-c2ccccc2CNC(=O)c2nc3n(c(=O)c2O)CCOC3(C)C)cn1 [Example 158, Pyrimido[2,1-c][1,4]oxazine-2-carboxamide, 4,6,7,9-tetrahydro-3-hydroxy-9,9-dimethyl-4-oxo-N-[[2-(1-propyl-1H-pyrazol-4-yl)phenyl]methyl]-]",2 to 100
13,"CC1(C)OCCn2c1nc(C(=O)NCc1ccc(F)cc1C#CCOS(C)(=O)=O)c(O)c2=O [Example 90, Pyrimido[2,1-c][1,4]oxazine-2-carboxamide, N-[[4-fluoro-2-[3-[(methylsulfonyl)oxy]-1-propynyl]phenyl]methyl]-4,6,7,9-tetrahydro-3-hydroxy-9,9-dimethyl-4-oxo-]",2 to 100
14,"CC1(C)OCCn2c1nc(C(=O)NCc1ccccc1-c1cccc(O)c1)c(O)c2=O [Example 165, Pyrimido[2,1-c][1,4]oxazine-2-carboxamide, 4,6,7,9-tetrahydro-3-hydroxy-N-[(3′-hydroxy[1,1′-biphenyl]-2-yl)methyl]-9,9-dimethyl-4-oxo-]",2 to 100
15,"CC1(C)OCCn2c1nc(C(=O)NCc1ccccc1-c1ccoc1)c(O)c2=O [Example 198, Pyrimido[2,1-c][1,4]oxazine-2-carboxamide, N-[[2-(3-furanyl)phenyl]methyl]-4,6,7,9-tetrahydro-3-hydroxy-9,9-dimethyl-4-oxo-]",2 to 100
16,"CCC1(CC)OCCn2c1nc(C(=O)NCc1ccc(F)cc1-n1cncn1)c(O)c2=O [Example 119, Pyrimido[2,1-c][1,4]oxazine-2-carboxamide, 9,9-diethyl-N-[[4-fluoro-2-(1H-1,2,4-triazol-1-yl)phenyl]methyl]-4,6,7,9-tetrahydro-3-hydroxy-4-oxo-]",2 to 100
17,"CC1(C)OCCn2c1nc(C(=O)NCc1ccc(F)cc1S(N)(=O)=O)c(O)c2=O [Example 110, Pyrimido[2,1-c][1,4]oxazine-2-carboxamide, N-[[2-(aminosulfonyl)-4-fluorophenyl]methyl]-4,6,7,9-tetrahydro-3-hydroxy-9,9-dimethyl-4-oxo-]",2 to 100
18,"COC(=O)c1ncn(-c2cc(F)ccc2CNC(=O)c2nc3n(c(=O)c2O)CCOC3(C)C)n1 [Example 60, 1H-1,2,4-Triazole-3-carboxylic acid, 1-[5-fluoro-2-[[[(4,6,7,9-tetrahydro-3-hydroxy-9,9-dimethyl-4-oxopyrimido[2,1-c][1,4]oxazin-2-yl)carbonyl]amino]methyl]phenyl], methyl este]",2 to 100
19,"CN(C)Cc1ccc(-c2ccccc2CNC(=O)c2nc3n(c(=O)c2O)CCOC3(C)C)cc1 [Example 178, Pyrimido[2,1-c][1,4]oxazine-2-carboxamide, N-[[4′-[(dimethylamino)methyl][1,1′-biphenyl]-2-yl]methyl]-4,6,7,9-tetrahydro-3-hydroxy-9,9-dimethyl-4-oxo-]",2 to 100
20,"CCC1OCCn2c1nc(C(=O)NCc1ccc(F)cc1C(=O)NC)c(O)c2=O (stereo not shown) [Example 15, Pyrimido[2,1-c][1,4]oxazine-2-carboxamide, 9-ethyl-N-[[4-fluoro-2-[(methylamino)carbonyl]phenyl]methyl]-4,6,7,9-tetrahydro-3-hydroxy-4-oxo-]",2 to 100
21,"CC1(C)OCCn2c1nc(C(=O)NCc1ccc(F)cc1C(=O)N1CCOCC1)c(O)c2=O [Example 52, Pyrimido[2,1-c][1,4]oxazine-2-carboxamide, N-[[4-fluoro-2-(4-morpholinylcarbonyl)phenyl]methyl]-4,6,7,9-tetrahydro-3-hydroxy-9,9-dimethyl-4-oxo-]",2 to 100
22,"CC1(C)OCCn2c1nc(C(=O)NCc1ccc(F)cc1OCC(=O)N1CCOCC1)c(O)c2=O [Example 46, Pyrimido[2,1-c][1,4]oxazine-2-carboxamide, N-[[4-fluoro-2-[2-(4-morpholinyl)-2-oxoethoxy]phenyl]methyl]-4,6,7,9-tetrahydro-3-hydroxy-9,9-dimethyl-4-oxo-]",2 to 100
